Here are results for one substance from patent publication US20210120789A1, “Genetically Modified Non-Human Animals” (Shanghai RAAS Blood Products Co., Ltd., priority 2019, published 2021).

Assay [1] has as its system factor IX deficient mice (F9−/−). Put plainly: Hemophilia B model, tail transection bleeding time. The format is in vivo, mouse. The following applies: distal tail transected at 4 mm, injected into an orbital vein 5 min before transection, vs no factor injected. The protocol: (§1) For hemophilia A model, 8 to 10-week-old mice including WT mice, factor VIII deficient mice (F8−/−) and human protein C knockin and factor VIII deficient double mutant mice (hproC+/+, F8−/−) anesthetized using 80 mg/kg sodium pentobarbital i.p. were placed on their abdomen with the tail immersed in 37° C. saline. The distal tail of mice was transected at 4 mm (severe injury), and the bleeding was arterial and venous. Human factor VIII was injected into an orbital vein 5 min before the tail was transected. Controls were also performed in which no Human Factor VIII was injected. For hemophilia B model, the same procedures were conducted except that factor IX deficient mice (F9−/−), human protein C knockin and factor IX deficient double mutant mice (hproC+/+, F9−/−), and human factor IX were used. Bleeding time was measured following the tail-tip transection and immediate immersion of the tail in 10 ml of saline at 37° C. Bleeding time was set at cessation of blood leakage for at least 1 min. After 15 min, the tail was removed from the saline and the bleeding time measure was ended.

In assay [2] the test system is human protein C knockin and factor IX deficient double mutant mice (hproC+/+, F9−/−). Put plainly: Hemophilia B model, tail transection bleeding time. Format: in vivo, mouse. The following applies: distal tail transected at 4 mm, injected into an orbital vein 5 min before transection, vs no factor injected. The protocol: as §1

For the substance “human factor IX: human blood clotting factor IX, injected before tail transection in the hemophilia B model”, the bleeding time entry in assay [1] and in assay [2] was “correct the prolonged bleeding time” throughout.
